This is an account of results in patent US5786145A, “Oligonucleotide competitors for binding of HIV RRE to REV protein and assays for screening inhibitors of this binding” (Medical Research Council, priority 1995, dated 1998).

Entries after “also recorded” stand apart in the source; their conditions may differ. Read-outs that look alike come from different tables or passages of the source.

The test system of data set [1] is rev protein. The experiment in a line: Competition filter binding against 32P-labelled R7 (FIGS. 13, 17). Details: species or system HIV-1. Conditions: 1.5 nM labelled R7, 24 nM rev, 0-60 nM competitor. How it is done:
In these experiments, uniformly ^32 P-labelled R7 (1.5 nM) was competed against 0-60 nM unlabelled competitor RNA in the presence of 24 nM rev protein.
The mixtures for competition binding (0.5 ml) included 1.5 nM ^32 P-labelled R7 (ca. 20,000 cpm), 24 nM rev protein, 1.5 ug/ml calf thymus DNA, 0.67 ug/ml yeast rRNA, varying concentrations (0-60 nM) of unlabelled competitor RNA and 80 units/ml RNasin in TK buffer (50 mM Tris-HCl (pH7.9) and 20 mM KCl). Binding was allowed to take place for more than 15 min on ice, and each mixture was passed through a Millipore GS filter (a 2.5 cm disk with a pore size of 0.22 um) prewashed twice with 0.6 ml of ice-cold TK buffer. The filter was washed with 0.6 ml of cold TK buffer and dried. The radioactivity retained on the filter was counted by liquid scintillation, and the results were plotted on a graph (FIG. 13).

The subject of data set [2] is rev protein. The experiment in a line: Competition filter binding against labelled RRE RNA (FIG. 11). Conditions: 17 nM rev, 0.5 pM labelled RRE RNA; read-out: D1/2, competitor concentration reducing rev binding to labelled RRE RNA by 50%. Details: species or system HIV-1. How it is done:
Unlabelled RRE RNA was an effective competitor and reduced rev binding to the labelled RRE RNA by 50% of the initial value with a D1/2 =2 nM. The short R33 transcript was also an effective competitor and reduced rev binding with D1/2 =8 nM. The mutations in the "bubble" either reduce or abolish specific rev binding.
Filter binding reactions contained 17 nM rev, 0.5 pM labelled RRE RNA and between 0-100 nM unlabelled competitor RNA. Empty squares, RRE RNA competitor; filled circles, R33 RNA competitor; filled triangles, R34 RNA competitor; empty triangles, R35 RNA competitor.

Data set [3] relates to rev protein. The data set is described as follows: Saturation filter binding of rev to labelled RNA transcripts. Details: species or system HIV-1. Conditions: for rev binding, result in words: saturation filter binding, 0 to 10 nM rev. How it is done: Rev protein was expressed and purified as described (33) or further purified by chromatography on Heparin-Sepharose. Rev was applied to Heparin columns in a buffer containing 200 mM NaCl/50mM Tris-HCl pH8.0/1 mM DTT/0.1 mM EDTA 0.1% Triton X-100 and eluted in buffer containing 2M NaCl. After gel filtration on Superose 6 (prep grade) columns equilibrated with 200 mM NaCl/50 mM Tris-HCl pH8.0/1 mM DTT/0.1 mM EDTA, the rev protein appeared homogeneous on SDS-polyacrylamide gels and free of RNA contaminants. Rev concentrations were determined by amino acid analysis of the purified protein.
DNA inserts containing RRE-related sequences were cloned between the EcoRI (5') and HindIII (3') sites of pGEM 1, either by cloning PCR products or by cloning annealed pairs of synthetic oligonucleotides. RNA transcripts for binding experiments were prepared by transcription of HindIII cut plasmids using T7 RNA polymerase and purified by gel electrophoresis. These transcripts carry a 5' extension of 15 nucleotides contributed by the vector and an extra A residue at the 3' end from the HindIII site, as described above.
For filter binding assays, each reaction mixture contained 20 pg of uniformly labelled RNA probe (approximately 500 cpm/pg RNA), […] sonicated salmon sperm DNA, […] yeast tRNA, 40 units RNasin (Promega) in […] TK buffer (43 mM Tris-HCl pH8.0, 50 mM KCl). Incubation was at 4° C. for 15 minutes in the presence of 0 to 10 nM purified rev protein. To measure binding, each reaction mixture was applied under gentle vacuum to a 0.45 um Millipore filter which had been pre-wetted with TK buffer. The filters were washed with […] TK buffer, dried, and radioactivity counted by liquid scintillation.
Filter binding assays contained 20 pg uniformly labelled RNA probe (500 dpm per pg RNA), 1 μg salmon sperm DNA, 0.45 μg yeast tRNA and 40 units RNasin (Promega) in 500 μl buffer containing 43 mM Tris-HCl pH 8.0, 50 mM KCl. Mutations in the purine-rich "bubble" sequence (numbered as shown in FIG. 2) were introduced into the R33 stem-loop structure (FIG. 3d) by site-directed mutagenesis.

Data set [4] deals with T1, HIV-1 Rev (Human immunodeficiency virus 1, UniProt P04618 P04618:1-116). The experiment in a line: filter; 50 mM KCl, 4 C; 18% bound at 10 nM rev. Conditions: tags: none stated; heparin-Sepharose and Superose 6 purified; chain copies: oligomer (tetramer likely; about 4 per RBC6, 6-8 per full-length RRE at 50 mM KCl) stated; label: 32P uniform.
Data set [5] addresses T1, HIV-1 Rev. The experiment in a line: filter; non-specific binding only. The following applies: tags: none stated, heparin-Sepharose and Superose 6 purified, chain copies: oligomer (tetramer likely; about 4 per RBC6, 6-8 per full-length RRE at 50 mM KCl) stated, label: 32P uniform.
For data set [6], the target named is T1, HIV-1 Rev. The data set is described as follows: filter; normal rev binding. The following applies: tags: none stated; heparin-Sepharose and Superose 6 purified; chain copies: oligomer (tetramer likely; about 4 per RBC6, 6-8 per full-length RRE at 50 mM KCl) stated; label: 32P uniform; stem-loop with purine-rich bubble.
Data set [7] deals with T1, HIV-1 Rev. The experiment in a line: filter. Conditions: tags: none stated, heparin-Sepharose and Superose 6 purified, chain copies: oligomer (tetramer likely; about 4 per RBC6, 6-8 per full-length RRE at 50 mM KCl) stated, label: 32P uniform.
In data set [8] the target is T1, HIV-1 Rev. The experiment in a line: competition; D1/2 vs labelled RRE RNA, 17 nM rev. Conditions: tags: none stated; heparin-Sepharose and Superose 6 purified; chain copies: oligomer (tetramer likely; about 4 per RBC6, 6-8 per full-length RRE at 50 mM KCl) stated; label: 32P uniform; stem-loop with altered bubble.
Where [9] appears, read: Table I, filter binding, 20 pg labelled RNA probe, 50 mM KCl, read-out: Kd.

As to “TWJ-U: three annealed synthetic oligoribonucleotides forming three-way junction; authentic HIV-1ARV2 sequence with G:U base pair (chain 1 GCACUAUGGGCGCAGC; chain 2 GCUGCGGUACAGGCCAGA; chain 3 UCUGGUAUAGUGC; RNA, backbone not given here)”, the “competition for rev binding against labelled R7, result in words” value (“competition for rev binding” below) in data set [1] is listed as “compete for rev binding with the same affinity”.

Turning to “RBC2-6X: only two oligonucleotides annealed, containing all sequences from the bubble region (chain 1 GCACUAUGGGCGCAGC; chain 2 GCUGCGGUACAGGCCAGA; chemistry not given here)”, the figures for the “competition for rev binding” value in data set [1] and in data set [1] (listed as RBC2,6X) were “not sufficiently stable to form an effective rev binding site” and “unable to compete effectively”, respectively.

In the case of “R33: stem-loop of residues 33 to 63, A56 deleted, inserted on top of a stem containing 9 base pairs; wild-type bubble (GGGAGACCGGAAUUCUGGGCGCAGUGUCAUUGACGCUGCGGUACAGAAUUCCGGCA; chemistry not given here)”, the IC50 in data set [2] amounted to 8 nM. In addition, the “% RNA bound (10 nM rev)” value in data set [3] (Table I, 50 mM KCl) amounted to 40%. In addition, in data set [3] (setting [9]), the Kd (as a rule, the constant that tells how readily two partners part at equilibrium) turned out to be 3 nM. The “rev binding, result in words” value in data set [3] is on record as “Normal rev binding”.

Turning to “RBC5: chemically synthesized RNA duplex, purine-rich bubble with 5 base pairs on each side (chain 1 GUGUGGGCGCAG; chain 2 CUGCGGUACACA; RNA, backbone not given here)”, in data set [1], the “competition for rev binding” value is given as “less”.

“R35 (GGGAGACCGGAAUUCUGGCGCAGUGUCAUUGACGCUGCGGUACAGAAUUCCGGCA; chemistry not given here)”: the IC50 in data set [2] amounted to 16 nM. In addition, in data set [3] (Table I, 50 mM KCl), the “% RNA bound (10 nM rev)” value is listed as 35%. Moreover, the Kd in data set [3] (setting [9]) amounted to 4 nM; in data set [3] (saturation filter binding of T7 transcripts, read-out: Kd for rev binding), 4 nM. Moreover, the “rev binding, result in words” value in data set [3] was “reduced rev binding slightly”.

Turning to “R34 (GGGAGACCGGAAUUCUGCGCAGUGUCAUUGACGCUGCGGUACAGAAUUCCGGC; chemistry not given here)”, in data set [2], the IC50 was more than 250 nM. In addition, in data set [3] (Table I, 50 mM KCl), the “% RNA bound (10 nM rev)” value is on record as 3%. In addition, the “rev binding, result in words” value in data set [3] is reported as “abolished specific rev binding; also recorded: does not bind rev with measurable affinity”.

Consider “TWJ-C: three annealed synthetic oligoribonucleotides forming bubble stabilized by three-way junction; U85 replaced by C (chain 1 GCACUAUGGGCGCAGC; chain 2 GCUGCGGUACAGGCCAGA; chain 3 UCUGGCAUAGUGC; RNA, backbone not given here)”, for which the “competition for rev binding” value in data set [1] is reported as “compete for rev binding with the same affinity”.

“RBC4: chemically synthesized RNA duplex, purine-rich bubble with 4 base pairs in the stem on each side (chain 1 UGUGGGCGCA; chain 2 UGCGGUACAC; RNA, backbone not given here)”: in data set [1], the “competition for rev binding” value is “no competitive binding abilities”.

B1: R42 (ssRNA)
RNA: GGGAGACCGGAAUUCUGGGCCCAGUGUCAUUGACGCUGGGGUACAGAAUUCCGGCA
modifications: [none]
Molecule B1 had a Kd in data set [4] of 8 nM.

B2: R52 (ssRNA)
RNA: GGGAGACCGGAAUUCUGGGCGCAGUGUCAUUGACGCUGCGGCACAGAAUUCCGGCA
modifications: [-]
For the molecule B2, the equilibrium dissociation constant (Kd) in data set [4] was 5 nM.

B3: R37 (ssRNA)
RNA: GGGAGACCGGAAUUCUAAACGCAGUGUCAUUGACGCUGCGGUAUAGAAUUCCGGCA
The molecule B3 came in with a binding signal in data set [5] (stem-loop with altered bubble) of 5 % RNA bound at 10 nM rev.

B4: R47 (ssRNA)
RNA: GGGAGACCGGAAUUCUGAGCGCAGUGUCAUUGACGCUGCGGUACAGAAUUCCGGCA
modifications: [none]
In data set [5], B4 returned a binding signal of 6 % RNA bound at 10 nM rev.

B5: R40 (ssRNA)
RNA: GGGAGACCGGAAUUCUCGGCGCAGUGUCAUUGACGCUGCGGUAGAGAAUUCCGGCA
modifications: [none]
B5: the binding signal in data set [5] was found to be 3 % RNA bound at 10 nM rev.

B6: R56 (ssRNA)
RNA: GGGAGACCGGAAUUCUGGGUGCAGUGUCAUUGACGCUGCAGUACAGAAUUCCGGCA
modifications: [none]
With B6, the binding signal in data set [5] turned out to be 6 % RNA bound at 10 nM rev.

B7: R41 (ssRNA)
RNA: GGGAGACCGGAAUUCUGGGGGCAGUGUCAUUGACGCUGCCGUACAGAAUUCCGGCA
modifications: [none]
With B7, in data set [5], the binding signal stood at 2 % RNA bound at 10 nM rev.

B8: R29 (apex loop antisense) (ssRNA)
RNA: GGGAGACCGGAAUUCUGGGCGCAGUGUCAAUGACGCUGACGGUACAGGCA
Take B8: the binding result in data set [6] is recorded as “binds”.

B9: R38 (upper stem-loop replaced by CUUCGG) (ssRNA)
RNA: GGGAGACCGGAAUUCUGGGCGCUUCGGCGGUACAGA
Turning to B9, in data set [7] (hairpin with purine-rich bubble), the affinity, expressed as Kd, was 1.73 nM.

B10: R34 (dG35-G36) (ssRNA)
RNA: GGGAGACCGGAAUUCUGCGCAGUGUCAUUGACGCUGCGGUACAGAAUUCCGGC
On to B10, for which the binding signal in data set [5] (stem-loop with altered bubble) was 3 % RNA bound at 10 nM rev. Besides, the IC50 in data set [8] is more than 250 nM.

B11: R22 (A56 deleted) (ssRNA)
RNA: GGGAGACCGGAAUUCUGGGCGCAGUGUCAUUGACGCUGCGGUACAGGCA
Molecule B11 yielded a Kd in data set [7] (stem-loop with purine-rich bubble) of 1.73 nM.

B12: R30 (upper stem antisense) (ssRNA)
RNA: GGGAGACCGGAAUUCUGGGCGCAGCGUCAUUGACACUGCGGUACAGGCA
Consider B12, for which, in data set [6], the binding result is reported as “binds”.
